The target of the assay is USP7 (Homo sapiens, UniProt Q93009). As to the kind of experiment: biochemical. More on the design: Ub-AMC hydrolysis by recombinant USP7 (20 nM), 30 min pre-incubation, fluorescence read-out. The conditions noted are these: read-out: % Inhibition at 50 μM.

Counter-ions that a name gives are not always drawn.

USP7, sequence (Q93009 whole entry): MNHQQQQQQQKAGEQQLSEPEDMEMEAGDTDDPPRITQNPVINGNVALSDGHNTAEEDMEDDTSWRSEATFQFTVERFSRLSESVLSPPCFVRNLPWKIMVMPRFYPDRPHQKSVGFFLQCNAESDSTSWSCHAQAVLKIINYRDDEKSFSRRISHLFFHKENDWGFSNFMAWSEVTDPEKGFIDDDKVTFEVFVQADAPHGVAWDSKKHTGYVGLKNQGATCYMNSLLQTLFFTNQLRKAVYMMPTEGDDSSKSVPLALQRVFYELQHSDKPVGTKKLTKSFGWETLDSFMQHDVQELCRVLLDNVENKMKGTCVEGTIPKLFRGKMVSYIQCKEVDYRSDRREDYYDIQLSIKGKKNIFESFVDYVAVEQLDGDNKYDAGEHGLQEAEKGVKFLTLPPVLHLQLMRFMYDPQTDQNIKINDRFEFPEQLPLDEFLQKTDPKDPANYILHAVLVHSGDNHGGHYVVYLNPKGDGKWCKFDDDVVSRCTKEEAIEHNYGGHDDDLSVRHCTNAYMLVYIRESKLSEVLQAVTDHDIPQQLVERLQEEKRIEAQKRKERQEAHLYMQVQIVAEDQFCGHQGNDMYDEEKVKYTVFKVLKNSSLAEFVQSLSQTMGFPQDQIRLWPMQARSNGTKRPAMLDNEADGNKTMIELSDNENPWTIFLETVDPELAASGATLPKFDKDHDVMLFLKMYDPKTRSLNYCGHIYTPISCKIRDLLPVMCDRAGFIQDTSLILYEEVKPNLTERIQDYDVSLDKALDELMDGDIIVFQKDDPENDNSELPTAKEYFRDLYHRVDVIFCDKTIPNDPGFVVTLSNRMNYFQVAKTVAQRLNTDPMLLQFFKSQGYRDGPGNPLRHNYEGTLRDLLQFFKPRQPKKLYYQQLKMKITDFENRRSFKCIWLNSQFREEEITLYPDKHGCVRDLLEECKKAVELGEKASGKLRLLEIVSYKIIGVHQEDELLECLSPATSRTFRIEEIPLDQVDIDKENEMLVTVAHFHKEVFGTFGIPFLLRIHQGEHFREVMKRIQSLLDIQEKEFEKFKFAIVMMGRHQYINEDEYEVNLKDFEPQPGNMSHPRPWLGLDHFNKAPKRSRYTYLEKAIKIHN

By inhibition is commonly meant the drop in the measured response relative to a control, in per cent. Take `CC1(C)CC[C@]2(C(=O)O)CC[C@]3(C)C(=CC[C@@H]4[C@@]5(C)CC[C@H](O)[C@@](C)(CO)[C@@H]5CC[C@]43C)[C@@H]2C1` [Hederagenin]: the inhibition at 50 µM came to 36.5%.
As for `CC(C)C(=O)c1c(C(C)C)nn2ccccc12` [Ibudilast], the figure is under 5%; as for `CC(=O)[C@]1(O)Cc2c(O)c3c(c(O)c2[C@@H](O[C@H]2C[C@H](N)[C@H](O)[C@H](C)O2)C1)C(=O)c1ccccc1C3=O` [Idarubicin], under 5%; as for `c1ccc2c(c1)OCC(C1=NCCN1)O2` (centres unmarked) [Idazoxan], under 5%.
Consider `COC1=C(OC)C(=O)C(CCCCCCCCCCO)=C(C)C1=O` [Idebenone], for which the inhibition at 50 µM was under 5%.
On to `CN(C)CCCN1c2ccccc2CCc2ccccc21` [Imipramine HCl], for which the inhibition at 50 µM came out at 26.5%.
For `CC(C)[N+]1(C)C2CCC1CC(OC(=O)C(CO)c1ccccc1)C2` (centres unmarked) [Ipratropium Br], the inhibition at 50 µM is under 5%.
For `Nc1nc(N)nc(-c2cc(Cl)ccc2Cl)n1` [Irsogladine maleate], the inhibition at 50 µM is under 5%.
In the case of `O=C(c1ccc(F)cc1)C1CCN(CCn2c(=O)[nH]c3ccccc3c2=O)CC1` [Ketanserin tartrate] it was under 5%; in that of `CC(C(=O)O)c1cccc(C(=O)c2ccccc2)c1` (centres unmarked) [Ketoprofen], under 5%.
In the case of `N[C@@H](Cc1cc(I)c(Oc2cc(I)c(O)c(I)c2)c(I)c1)C(=O)O` [L-thyroxine [(3-[4-(4-hydroxy-3,5-diiodophenoxy)-3,5-diiodophenyl]-l-alanine]] it was 65.3%.
For `CS(=O)(=O)CCNCc1ccc(-c2ccc3ncnc(Nc4ccc(OCc5cccc(F)c5)c(Cl)c4)c3c2)o1` [Lapatinib], the inhibition at 50 µM was under 5%.
As for `CC(C)OC(=O)CCC/C=C\C[C@@H]1[C@@H](CC[C@@H](O)CCc2ccccc2)[C@H](O)C[C@@H]1O` [Latanoprost], the figure is 6.9%; as for `Cc1oncc1C(=O)Nc1ccc(C(F)(F)F)cc1` [Leflunomide], under 5%.
As to `c1ccc([C@H]2CN3CCSC3=N2)cc1` [Levamisole HCl], the inhibition at 50 µM was under 5%.
As for `N[C@@H](Cc1ccc(O)c(O)c1)C(=O)O` [Levodopa], the figure is under 5%.
Regarding `C[C@H]1COc2c(N3CCN(C)CC3)c(F)cc3c(=O)c(C(=O)O)cn1c23` [Levofloxacin HCl], the inhibition at 50 µM is under 5%.
As for `C#C[C@]1(O)CC[C@H]2[C@@H]3CCC4=CC(=O)CC[C@@H]4[C@H]3CC[C@@]21CC` [Levonorgestrel], the inhibition at 50 µM was under 5%.
As to `CCN(CC)CC(=O)Nc1c(C)cccc1C` [Lidocaine], the inhibition at 50 µM is under 5%.
In the case of `CCC[C@@H]1C[C@@H](C(=O)N[C@@H]([C@H]2O[C@H](SC)[C@H](O)[C@@H](O)[C@H]2O)[C@@H](C)O)N(C)C1` [Lincomycin] it was under 5%.
For the molecule `CC(=O)NC[C@H]1CN(c2ccc(N3CCOCC3)c(F)c2)C(=O)O1` [Linezolid], the inhibition at 50 µM was under 5%.
As for `NCCCC[C@H](N[C@@H](CCc1ccccc1)C(=O)O)C(=O)N1CCC[C@H]1C(=O)O` [Lisinopril], the figure is 30.5%; as for `CN1[C@@H](CC(=O)c2ccccc2)CCC[C@H]1C[C@H](O)c1ccccc1` [Lobeline], under 5%.
On to `CCn1cc(C(=O)O)c(=O)c2cc(F)c(N3CCNC(C)C3)c(F)c21` (centres unmarked) [Lomefloxacin HCl], for which the inhibition at 50 µM came to 8.6%.
Regarding `COC(=O)c1ccc(O)c2nc3c(C=O)c(O)cc(O)c3nc12` [Lomofungin], the inhibition at 50 µM is under 5%.
In the case of `CN(C)C(=O)C(CCN1CCC(O)(c2ccc(Cl)cc2)CC1)(c1ccccc1)c1ccccc1` [Loperamide] it was under 5%; in that of `CCOC(=O)N1CCC(=C2c3ccc(Cl)cc3CCc3cccnc32)CC1` [Loratadine], 20.4%.
As for `CCCCCN(CCCCC)C(=O)C(CCC(=O)O)NC(=O)c1ccc(Cl)c(Cl)c1` (centres unmarked) [Lorglumide], the figure is under 5%.
In the case of `CCCCc1nc(Cl)c(CO)n1Cc1ccc(-c2ccccc2-c2nnn[nH]2)cc1` [Losartan potassium] it was under 5%.
In the case of `C=C(C)[C@@H]1CC[C@]2(C)CC[C@]3(C)[C@H](CC[C@@H]4[C@@]5(C)CC[C@H](O)C(C)(C)[C@@H]5CC[C@]43C)[C@@H]12` [Lupeol], the inhibition at 50 µM is under 5%.
On to `C[C@H]1[C@H](C)CC[C@]2(C(=O)O)CC[C@]3(C)C(=CC[C@@H]4[C@@]5(C)C[C@@H](O)[C@H](O)[C@@](C)(CO)[C@@H]5[C@H](O)C[C@]43C)[C@H]12` [Madecassic acid], for which the inhibition at 50 µM is under 5%.
In the case of `COC(=O)C1=C(C)NC(C)=C(C(=O)OCCN2CCN(C(c3ccccc3)c3ccccc3)CC2)C1c1cccc([N+](=O)[O-])c1` (centres unmarked) [Manidipine] it was under 5%; in that of `CNCCCC12CCC(c3ccccc31)c1ccccc12` [Maprotiline HCl], 11.3%; in that of `COC(=O)Nc1nc2cc(C(=O)c3ccccc3)ccc2[nH]1` [Mebendazol], under 5%.
In the case of `CNC1(C)C2CCC(C2)C1(C)C` (centres unmarked) [Mecamylamine HCl] it was under 5%; in that of `CC(=O)O[C@]1(C(C)=O)CC[C@H]2[C@@H]3C[C@H](C)C4=CC(=O)CC[C@]4(C)[C@H]3CC[C@@]21C` [Medroxyprogesterone 17-acetate], under 5%.
Regarding `Cc1cccc(Nc2ccccc2C(=O)O)c1C` [Mefenamic acid], the inhibition at 50 µM was under 5%.
As for `CC(=O)O[C@]1(C(C)=O)CC[C@H]2[C@@H]3C=C(C)C4=CC(=O)CC[C@]4(C)[C@H]3CC[C@@]21C` [Megestrol acetate], the inhibition at 50 µM is under 5%.
As for `COc1ccc2[nH]cc(CCNC(C)=O)c2c1` [Melatonin], the figure is under 5%; as for `C=C1C[C@H]2[C@@H]3C=C(C)C4=CC(=O)CC[C@]4(C)[C@H]3CC[C@]2(C)[C@@]1(OC(C)=O)C(C)=O` [Melengestrol acetate], under 5%.
In the case of `Cc1cnc(NC(=O)C2=C(O)c3ccccc3S(=O)(=O)N2C)s1` [Meloxicam], the inhibition at 50 µM is under 5%.
Consider `N[C@@H](Cc1ccc(N(CCCl)CCCl)cc1)C(=O)O` [Melphalan], for which the inhibition at 50 µM was under 5%.
As for `CC12CC3CC(C)(C1)CC(N)(C3)C2` [Memantine HCl], the figure is under 5%.
Take `COc1ccc(CN(CCN(C)C)c2ccccn2)cc1` [Mepyramine maleate]: the inhibition at 50 µM is under 5%.
In the case of `CN1CCCCC1CCN1c2ccccc2Sc2ccc([S+](C)[O-])cc21` (centres unmarked) [Mesoridazine besylate] it was 16.5%; in that of `CN1C[C@@H](NS(=O)(=O)N(C)C)C[C@@H]2c3cccc4c3c(cn4C)C[C@H]21` [Mesulergine HCl], under 5%.
As to `CN(C)C(=N)NC(=N)N` [Metformin], the inhibition at 50 µM was 8.6%.
In the case of `Cn1ccnc1S` [Methimazole] it was under 5%; in that of `C[C@](N)(Cc1ccc(O)c(O)c1)C(=O)O` [Methyldopa], under 5%; in that of `C[C@H]1C[C@@H]2[C@H]([C@@H](O)C[C@@]3(C)[C@H]2CC[C@]3(O)C(=O)CO)[C@@]2(C)C=CC(=O)C=C12` [Methylprednisolone], under 5%.
As for `CC[C@@H](CO)NC(=O)[C@@H]1C=C2c3cccc4c3c(cn4C)C[C@H]2N(C)C1` [Methysergide], the figure is under 5%; as for `CCN(CC)CCNC(=O)c1cc(Cl)c(N)cc1OC` [Metoclopramide HCl], under 5%; as for `COCCc1ccc(OCC(O)CNC(C)C)cc1` (centres unmarked) [Metoprolol tartrate], under 5%.
As for `Cc1ncc([N+](=O)[O-])n1CCO` [Metronidazole], the figure is under 5%; as for `CC[C@H](C)C(=O)O[C@H]1CCC=C2C=C[C@H](C)[C@H](CC[C@@H]3C[C@@H](O)CC(=O)O3)[C@H]21` [Mevastatin], under 5%.
In the case of `CN1CCN2c3ccccc3Cc3ccccc3C2C1` (centres unmarked) [Mianserin hcl], the inhibition at 50 µM was 21.3%.
In the case of `Clc1ccc(COC(Cn2ccnc2)c2ccc(Cl)cc2Cl)c(Cl)c1` (centres unmarked) [Miconazole] it was under 5%.
Take `CC#C[C@]1(O)CC[C@H]2[C@@H]3CCC4=CC(=O)CCC4=C3[C@@H](c3ccc(N(C)C)cc3)C[C@@]21C` [Mifepristone]: the inhibition at 50 µM was under 5%.
As to `CCCCN1C[C@H](O)[C@@H](O)[C@H](O)[C@H]1CO` [Miglustat], the inhibition at 50 µM was under 5%.
Take `Cc1[nH]c(=O)c(C#N)cc1-c1ccncc1` [Milrinone]: the inhibition at 50 µM is under 5%.
For the molecule `CCCCCCCCCCCCCCCCOP(=O)([O-])OCC[N+](C)(C)C` [Miltefosine], the inhibition at 50 µM is 6.5%.
In the case of `CN(C)c1ccc(O)c2c1C[C@H]1C[C@H]3[C@H](N(C)C)C(O)=C(C(N)=O)C(=O)[C@@]3(O)C(O)=C1C2=O` [Minocycline HCl] it was under 5%.
In the case of `CO[C@@]12[C@H](COC(N)=O)C3=C(C(=O)C(C)=C(N)C3=O)N1C[C@@H]1N[C@@H]12` [Mitomycin c] it was 31.5%; in that of `O=C1c2c(O)ccc(O)c2C(=O)c2c(NCCNCCO)ccc(NCCNCCO)c21` [Mitoxantrone 2HCl], under 5%.
In the case of `CCOC(=O)[N-]c1c[n+](N2CCOCC2)no1` [Molsidomine] it was under 5%; in that of `CC(C)(O)c1ccccc1CC[C@@H](SCC1(CC(=O)O)CC1)c1cccc(/C=C/c2ccc3ccc(Cl)cc3n2)c1` [Montelukast], 76.3%; in that of `N=C(N)NC(=N)N1CCOCC1` [Moroxydine HCl], 17.2%.
Turning to `COc1c(N2C[C@@H]3CCCN[C@@H]3C2)c(F)cc2c(=O)c(C(=O)O)cn(C3CC3)c12` [Moxifloxacin HCl], the inhibition at 50 µM is under 5%.
In the case of `CCCCC(C#N)(Cn1cncn1)c1ccc(Cl)cc1` (centres unmarked) [Myclobutanil] it was under 5%.
Turning to `COc1c(C)c2c(c(O)c1C/C=C(\C)CCC(=O)O)C(=O)OC2` [Mycophenolic acid], the inhibition at 50 µM is under 5%.
As for `COc1ccc2cc(CCC(C)=O)ccc2c1` [Nabumetone], the figure is under 5%.

Values taken from paper PMC5363571 (Oncotarget, 2016).
